Measured values: ChEMBL document CHEMBL1201862, “PubChem BioAssay data set” (2004)
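Where inhibition never reached the appropriate level, the endpoint shown equals the highest concentration tested. Otherwise, values were interpolated linearly from a five-concentration, 48-hour dose response in 96-well plates. The concentration for 50% growth inhibition is given as GI50.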 The source made the active and inactive calls. Cut-off read from the data, not from the text of the source: active = GI50 up to about 1.1 µM and inactive = higher.

What was measured:
Assay in all cases: NCI tumour cell line growth inhibition, 48 h
UACC-62 = system: UACC-62
PC-3 = system: PC-3
CCRF-CEM = system: CCRF-CEM
SK-OV-3 = system: SK-OV-3
Hs-578T = system: Hs-578T
KM12 = system: KM12
UO-31 = system: UO-31
HT-29 = system: HT-29
EKVX = system: EKVX
MOLT-4 = system: MOLT-4
T47D = system: T47D
NCI-H226 = system: NCI-H226
OVCAR-4 = system: OVCAR-4
M14 = system: M14
COLO 205 = system: COLO 205
OVCAR-8 = system: OVCAR-8
786-0 = system: 786-0
RXF 393 = system: RXF 393
RPMI-8226 = system: RPMI-8226

COc1ccc(Oc2nc3c(N)cc(C(F)(F)F)cc3nc2-c2ccccc2)cc1
GI50 (UACC-62): 31.4 µM (inactive)
GI50 (PC-3): 19.8 µM (inactive)
GI50 (CCRF-CEM): 38.4 µM (inactive)
GI50 (SK-OV-3): 13.3 µM (inactive)
GI50 (Hs-578T): 16.3 µM (inactive)
GI50 (KM12): 12.8 µM (inactive)
GI50 (UO-31): 60.8 µM (inactive)
GI50 (HT-29): 10.8 µM (inactive)
GI50 (EKVX): 12.8 µM (inactive)
GI50 (MOLT-4): 42.2 µM (inactive)
GI50 (T47D): 8.04 µM (inactive)
GI50 (NCI-H226): 11.9 µM (inactive)
GI50 (OVCAR-4): > 100 µM (inactive)
GI50 (M14): 13.3 µM (inactive)
GI50 (COLO 205): 12.8 µM (inactive)
GI50 (OVCAR-8): 26.9 µM (inactive)
GI50 (786-0): 20.5 µM (inactive)
GI50 (RXF 393): 11.6 µM (inactive)
GI50 (RPMI-8226): 63 µM (inactive)

CC(C)NC(=O)OCc1c(COC(=O)NC(C)C)n(C)c2c1ccc1ccccc12
GI50 (UACC-62): 1.44 µM (inactive)
GI50 (PC-3): 4.43 µM (inactive)
GI50 (CCRF-CEM): 0.112 µM (active)
GI50 (SK-OV-3): 9.82 µM (inactive)
GI50 (Hs-578T): 0.971 µM (active)
GI50 (KM12): 4.51 µM (inactive)
GI50 (UO-31): 1.9 µM (inactive)
GI50 (HT-29): 3.34 µM (inactive)
GI50 (EKVX): 2.43 µM (inactive)
GI50 (MOLT-4): 1.15 µM (inactive)
GI50 (T47D): 0.247 µM (active)
GI50 (NCI-H226): 1.82 µM (inactive)
GI50 (OVCAR-4): 2.75 µM (inactive)
GI50 (M14): 1.63 µM (inactive)
GI50 (COLO 205): 1.84 µM (inactive)
GI50 (OVCAR-8): 1.8 µM (inactive)
GI50 (786-0): 1.21 µM (inactive)
GI50 (RXF 393): 1.25 µM (inactive)
GI50 (RPMI-8226): 1.19 µM (inactive)

CC1SCc2nc3ccccc3n21 (stereo not drawn)
GI50 (UACC-62): > 100 µM (inactive)
GI50 (PC-3): > 100 µM (inactive)
GI50 (CCRF-CEM): > 100 µM (inactive)
GI50 (SK-OV-3): > 100 µM (inactive)
GI50 (Hs-578T): > 100 µM (inactive)
GI50 (KM12): > 100 µM (inactive)
GI50 (UO-31): > 100 µM (inactive)
GI50 (HT-29): > 100 µM (inactive)
GI50 (EKVX): > 100 µM (inactive)
GI50 (MOLT-4): > 100 µM (inactive)
GI50 (T47D): > 100 µM (inactive)
GI50 (NCI-H226): 3.58 µM (inactive)
GI50 (OVCAR-4): > 100 µM (inactive)
GI50 (M14): > 100 µM (inactive)
GI50 (COLO 205): > 100 µM (inactive)
GI50 (OVCAR-8): > 100 µM (inactive)
GI50 (786-0): > 100 µM (inactive)
GI50 (RXF 393): > 100 µM (inactive)
GI50 (RPMI-8226): > 100 µM (inactive)

O=c1c2ccccc2sc2c(CO)ccc(NCCN3CCCCC3)c12
GI50 (UACC-62): 4.33 µM (inactive)
GI50 (PC-3): 4.31 µM (inactive)
GI50 (CCRF-CEM): 1.15 µM (inactive)
GI50 (SK-OV-3): 3.91 µM (inactive)
GI50 (Hs-578T): 4.38 µM (inactive)
GI50 (KM12): 3.55 µM (inactive)
GI50 (UO-31): 1.88 µM (inactive)
GI50 (HT-29): 2.94 µM (inactive)
GI50 (EKVX): 4.66 µM (inactive)
GI50 (MOLT-4): 1.04 µM (active)
GI50 (T47D): 5.25 µM (inactive)
GI50 (NCI-H226): 2.85 µM (inactive)
GI50 (OVCAR-4): 2.48 µM (inactive)
GI50 (M14): 1.93 µM (inactive)
GI50 (COLO 205): 1.92 µM (inactive)
GI50 (OVCAR-8): 3.56 µM (inactive)
GI50 (786-0): 2.47 µM (inactive)
GI50 (RXF 393): 2.39 µM (inactive)
GI50 (RPMI-8226): 1.91 µM (inactive)

CCOc1cc(NC(C)=O)ccc1C(=O)NN1C(=O)/C(=C/c2ccco2)N=C1c1ccccc1
GI50 (UACC-62): > 100 µM (inactive)
GI50 (PC-3): > 100 µM (inactive)
GI50 (CCRF-CEM): > 100 µM (inactive)
GI50 (SK-OV-3): > 100 µM (inactive)
GI50 (Hs-578T): 42.8 µM (inactive)
GI50 (KM12): > 100 µM (inactive)
GI50 (UO-31): 61.7 µM (inactive)
GI50 (HT-29): > 100 µM (inactive)
GI50 (EKVX): 74.3 µM (inactive)
GI50 (MOLT-4): 22.3 µM (inactive)
GI50 (T47D): > 100 µM (inactive)
GI50 (NCI-H226): > 100 µM (inactive)
GI50 (OVCAR-4): > 100 µM (inactive)
GI50 (M14): > 100 µM (inactive)
GI50 (COLO 205): > 100 µM (inactive)
GI50 (OVCAR-8): 41.2 µM (inactive)
GI50 (786-0): > 100 µM (inactive)
GI50 (RXF 393): > 100 µM (inactive)
GI50 (RPMI-8226): 15.1 µM (inactive)

COc1ccc(N2C(=O)CSC2c2cc3cc(Br)ccc3nc2Cl)cc1 (stereo not drawn)
GI50 (UACC-62): 10.3 µM (inactive)
GI50 (PC-3): > 50 µM (inactive)
GI50 (CCRF-CEM): 31.6 µM (inactive)
GI50 (SK-OV-3): > 50 µM (inactive)
GI50 (Hs-578T): > 50 µM (inactive)
GI50 (KM12): 20.9 µM (inactive)
GI50 (UO-31): > 50 µM (inactive)
GI50 (HT-29): > 50 µM (inactive)
GI50 (EKVX): > 50 µM (inactive)
GI50 (MOLT-4): 21 µM (inactive)
GI50 (T47D): 38.3 µM (inactive)
GI50 (NCI-H226): > 50 µM (inactive)
GI50 (OVCAR-4): > 50 µM (inactive)
GI50 (M14): 38.5 µM (inactive)
GI50 (COLO 205): > 50 µM (inactive)
GI50 (OVCAR-8): > 50 µM (inactive)
GI50 (786-0): > 50 µM (inactive)
GI50 (RXF 393): > 50 µM (inactive)
GI50 (RPMI-8226): 41.8 µM (inactive)

Cn1c(=O)c2sc3c4sc5c(=O)n(C)c6ccccc6c5c4sc3c2c2ccccc21
GI50 (UACC-62): > 100 µM (inactive)
GI50 (PC-3): > 100 µM (inactive)
GI50 (CCRF-CEM): > 100 µM (inactive)
GI50 (SK-OV-3): > 100 µM (inactive)
GI50 (Hs-578T): 56.5 µM (inactive)
GI50 (KM12): > 100 µM (inactive)
GI50 (UO-31): > 100 µM (inactive)
GI50 (HT-29): > 100 µM (inactive)
GI50 (EKVX): > 100 µM (inactive)
GI50 (MOLT-4): > 100 µM (inactive)
GI50 (T47D): > 100 µM (inactive)
GI50 (NCI-H226): > 100 µM (inactive)
GI50 (OVCAR-4): 98.9 µM (inactive)
GI50 (M14): > 100 µM (inactive)
GI50 (COLO 205): > 100 µM (inactive)
GI50 (OVCAR-8): > 100 µM (inactive)
GI50 (786-0): 38.1 µM (inactive)
GI50 (RXF 393): 12.6 µM (inactive)
GI50 (RPMI-8226): > 100 µM (inactive)
